ChEMBL document CHEMBL4602644, “Synthesis of PJOV56, a new quinoxalinyl-hydrazone derivative able to induce autophagy and apoptosis in colorectal cancer cells, and related compounds” (Bioorg Med Chem Lett, 2020)
The source made the active and inactive calls. The calls are words filed in the database; no cut-off is given here.

Tests used:
HL-60 = assay: Cytotoxicity against human HL60 cells assessed as cell growth inhibition at 5 ug/ml measured after 72 hrs by MTT assay relative to control; type: functional; conditions: HL-60, 72 h, read-out: GI
HCT-116 [1] = assay: Cytotoxicity against human HCT116 cells assessed as cell growth inhibition at 5 ug/ml measured after 72 hrs by MTT assay relative to control; type: functional; conditions: HCT-116, 72 h, read-out: GI
OVCAR-8 = assay: Cytotoxicity against human OVCAR8 cells assessed as cell growth inhibition at 5 ug/ml measured after 72 hrs by MTT assay relative to control; type: functional; conditions: OVCAR-8, 72 h, read-out: GI
SF-295 = assay: Cytotoxicity against human SF295 cells assessed as reduction in cell viability measured after 72 hrs by MTT assay; type: functional, cell-based; conditions: SF-295, 72 h
HCT-116 [2] = assay: Cytotoxicity against human HCT116 cells assessed as reduction in cell viability measured after 72 hrs by MTT assay; type: functional, cell-based; conditions: HCT-116, 72 h
HCT-116 [3] = assay: Induction of morphological changes in human HCT116 cells assessed as increase in cell size at 1.5 to 6 uM measured after 48 hrs by propidium iodide staining based flow cytometry; type: functional
HCT-116 [4] = assay: Induction of morphological changes in human HCT116 cells assessed as discrete apoptotic cells at 6 uM measured after 48 hrs by propidium iodide staining based flow cytometry; type: functional, cell-based
HCT-116 [5] = assay: Induction of autophagy in human HCT116 cells assessed as formation of autophagic vacuoles at 3 to 6 uM measured after 48 hrs by monodansylcadaverine staining based confocal microscopy; type: functional, cell-based
HCT-116 [6] = assay: Induction of autophagy in human HCT116 cells decrease in Beclin 1 level at 6 uM measured after 48 hrs by Western blot analysis; type: functional, cell-based
HCT-116 [7] = assay: Induction of apoptosis in human HCT116 cells assessed as necrotic cells at 3 uM measured after 48 hrs by annexinV-PE/7-AAD staining based flow cytometric analysis (reference value: 0.16 %); type: functional
HCT-116 [8] = assay: Induction of apoptosis in human HCT116 cells assessed as live cells at 6 uM measured after 48 hrs by annexinV-PE/7-AAD staining based flow cytometric analysis (reference value: 91.42 %); type: functional
HCT-116 [9] = assay: Disruption of membrane integrity in human HCT116 cells assessed as decrease in viable cells at 6 uM measured after 48 hrs by propidium iodide staining based flow cytometry relative to control; type: functional
HCT-116 [10] = assay: Induction of apoptosis in human HCT116 cells assessed as early apoptotic cells at 6 uM measured after 48 hrs by annexin-V staining based flow cytometry (reference value: 0.34 %); type: functional
HCT-116 [11] = assay: Cell cycle arrest in human HCT116 cells assessed as accumulation at G0/G1 phase at 3 uM measured after 48 hrs by propidium iodide staining based flow cytometry (reference value: 41.67 %); type: functional
HCT-116 [12] = assay: Cell cycle arrest in human HCT116 cells assessed as accumulation at G2/M phase at 3 uM measured after 48 hrs by propidium iodide staining based flow cytometry (reference value: 24.98 %); type: functional
HCT-116 [13] = assay: Cell cycle arrest in human HCT116 cells assessed as accumulation at S phase at 6 uM measured after 48 hrs by propidium iodide staining based flow cytometry (reference value: 33.29 %); type: functional
HCT-116 [14] = assay: Cell cycle arrest in human HCT116 cells assessed as accumulation at G2/M phase at 6 uM measured after 48 hrs by propidium iodide staining based flow cytometry (reference value: 24.98 %); type: functional

Q: `C(=N\Nc1cnc2ccccc2n1)/c1ccccn1` was tested. Which inhibition of growth at 5 µg/mL (HL-60) did it give?
A: 94.8%

Q: And the inhibition of growth at 5 µg/mL (HCT-116 [1])?
A: 80.4%

Q: And the inhibition of growth at 5 µg/mL (OVCAR-8)?
A: 97.8%

Q: What about the IC50 (SF-295) of the same compound?
A: 3880 nM

Q: What about the IC50 (HCT-116 [2]) of the same compound?
A: 1830 nM

Q: And the Activity (HCT-116 [3])?
A: Active

Q: What about the Activity (HCT-116 [4]) of the same compound?
A: Active

Q: And the Activity (HCT-116 [5])?
A: Active

Q: What about the Activity (HCT-116 [6]) of the same compound?
A: Active

Q: And the Activity (HCT-116 [7])?
A: 0.87%

Q: What about the Activity (HCT-116 [8]) of the same compound?
A: 66.2%

Q: What about the Activity (HCT-116 [9]) of the same compound?
A: 68.31%

Q: What about the Activity (HCT-116 [10]) of the same compound?
A: 25.6%

Q: And the Activity (HCT-116 [11])?
A: 14.45%

Q: What about the Activity (HCT-116 [12]) of the same compound?
A: 30.19%

Q: What about the Activity (HCT-116 [13]) of the same compound?
A: 29.41%

Q: What about the Activity (HCT-116 [14]) of the same compound?
A: 5.8%
